Legend:
Format in all cases: cell-based
[1] = test system: EB virus
[2] = test system: pseudorabies virus
[3] = test system: pseudorabies virus; remark: listed apart in the source

CC(C)(C)C(=O)OCOP(=O)(COCCn1cnc2c(N)ncnc21)OCOC(=O)C(C)(C)C [adefovir dipivoxil]
inhibitory activity against EB virus replication [1]: no inhibitory activity against EB virus | EC50 for the inhibition against pseudorabies virus proliferation [2]: reaches nanomolar level | inhibitory effect on pseudorabies virus replication and proliferation [2]: can significantly inhibit the replication and proliferation of pseudorabies virus | inhibition of the release of pseudorabies virus from cells [3]: can significantly inhibit the release of pseudorabies virus from cells
